Results reported in patent US12275684B2, “Methods for making and using endoxifen” (Atossa Therapeutics, Inc., priority 2017, dated 2025).
Where two headings read alike, the source gives them in different places. Values belong to the compound of their own block, whether it stands above or below them.

Columns and labels:
[1] = cited from earlier work
[2] = Placebo controlled, dose escalation pharmacokinetic study of oral (Z)-Endoxifen capsules (serum endoxifen; incl. accumulation ratios and dose linearity); assay type: in vivo, human
Text: An objective of the study was to assess the safety and tolerability of oral (Z)-Endoxifen when administered […] orally as a capsule to healthy female volunteers. A secondary objective was to assess the pharmacokinetics of multiple doses of oral (Z)-Endoxifen in the subjects.
Generally, healthy female volunteers aged ≥18 years and ≤65 years were enrolled. 24 participants were enrolled in 3 cohorts and will be administered study drug orally. Three dose levels of orally administered (Z)-Endoxifen were investigated in 3 cohorts. In each cohort participants were randomized to receive an oral (Z)-Endoxifen or placebo in a blinded fashion. Enteric-resistant capsules used in the study were designed as delayed release capsules to resist rupture for at least 30 minutes, but typically, for about 2 hours, under gastric conditions and then open fully in intestinal fluid (DRCaps; Capsugel, a Lonza Company, USA). Enteric-resistant (Swedish Orange size Zero (0); Capsugel, USA) DRCaps capsules manually filled with 1, 2 or 4 mg of (Z)-endoxifen neat in compliance with GMP requirements were used. Placebo capsules contained microcrystalline cellulose an inert common capsule and tablet excipient.
Each cohort enrolled 8 participants, with 6 participants receiving (Z)-Endoxifen 1 mg capsules orally at 1 mg (Cohort 1), 2 mg (Cohort 2) or 4 mg (Cohort 3) doses and 2 participants receiving matching placebo capsules. In Cohort 1 (Dose Level=1 mg) two participants (sentinels) were dosed 24 hours prior to the remaining participants. One sentinel was dosed with (Z)-Endoxifen and the other with placebo. The remaining six participants in Cohort 1 were dosed as no safety concerns were identified in the sentinel participants. The non-sentinel participants in Cohort 1 were admitted to the clinical research facility at least one day later than the sentinels. There were no sentinels in Cohorts 2 and 3.
Participant engagement in this study was for a period of 56 days. These included a 28 day screening period, and a 7 day post treatment period for Pharmacokinetic (PK) sampling. There were two confinement periods, one at the beginning and one at the end of the dosing periods. Participants were confined to the clinical facility on Days-1 through to Day 2 and Days 21 and 22. If participants were to experience any clinically significant adverse events during the study, they would have been required to remain in the clinical facility for further observation at the discretion of the Principal Investigator (PI).
Healthy female volunteers were screened within 28 days prior to commencement of dosing. Participants were admitted to the clinical facility on Day-1 for up to 3 days. The first dose of (Z)-Endoxifen or placebo capsules was administered on Day 1. Following completion of all safety assessments and sampling for PK analyses, participants were discharged from the clinical facility on Day 2. The first dose on Day 1 was followed by a 6-day treatment free period (Days 2-7). Each participant returned to the clinical facility for PK blood draws and safety assessments during the treatment free period on study Days 4 and 6. On Day 8 participants commenced daily administration of (Z)-Endoxifen capsules or placebo capsules for 14 consecutive days (Days 8-21). Participants were supplied with study drug capsules and asked to self administer daily. Participants visited the clinical facility on Days 11, 14 and 17, prior to dose administration, for PK blood draws and safety assessments. On the morning of Day 21 each participant returned to the clinical facility prior to dose administration and were confined to the facility until Day 22 to allow for the collection of PK blood draws and safety assessments. The Day 21 dose was the last administration of study drug. Participants were discharged from the clinical facility on Day 22 and returned for PK blood draws and safety assessments on study Days 24, 26, and 28. […]

[3] = cited from earlier work; for predicted t90 for 10% conversion to (E)-endoxifen: solid state

Structure (SMILES): CC/C(=C(\c1ccccc1)c1ccc(OCCN(C)C)cc1)c1ccccc1 [tamoxifen, (Z)-2-[4-(1,2-diphenyl-1-butenyl)phenoxy]-N,N-dimethylethanamine]
- Terminal elimination half life ([1]; in vivo): 120 to 170 h
- peak concentration time ([1]; post-dose): approximately 5 hours

- dose linearity β Estimate ([2]; AUC24 hr (log), Day 1): 0.873
- dose linearity β Estimate ([2]; AUC24 hr (log), Day 21): 1.008
- dose linearity β Estimate ([2]; Cmax (log), Day 1): 0.808
- dose linearity β Estimate ([2]; Cmax (log), Day 21): 1.055
Structure (SMILES): CC/C(=C(\c1ccc(O)cc1)c1ccc(OCCNC)cc1)c1ccccc1 [Endoxifen]

Structure (SMILES): CC/C(=C(\c1ccc(O)cc1)c1ccc(OCCNC)cc1)c1ccccc1.Cl [(Z)-endoxifen HCl]
- t90 ([3]; aqueous medium, 45° C.): 9 days
- predicted t90 for 10% conversion to (E)-endoxifen ([3]; 25° C./60% RH): 53 months
- predicted t90 for 10% conversion to (E)-endoxifen ([3]; 40° C./75% RH): 4.3 months
